Experiments:
Assay type in all cases: in vivo
[1] = test system: barnyardgrass (Echinochloa crus-galli); experiment: Test G Pre-Emergence Protocol; details: Echinochloa crus-galli, pre-emergence, 312 h, evaluated after 13 days; for pest or weed control at 15.625 g/ha: 15.625 g ai/ha; for pest or weed control at 15.625 g/ha / pest or weed control at 250 g/ha: read-out: Barnyardgrass damage rating (100=total damage to plant; 0=no damage to plant); for pest or weed control at 62.5 g/ha: 62.5 g ai/ha, 100=total damage to plant, 0=no damage to plant, read-out: Barnyardgrass damage rating; for pest or weed control at 250 g/ha: 250 g ai/ha
Outline: (§1)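 Seeds were sown in standard soil and kept one day in a glasshouse (24/16° C day/night, 14 h light, 65% humidity), then sprayed with compound in acetone/water (50:50) containing 0.5% Tween 20 at 15.625, 62.5 or 250 g/ha. Damage was scored after 13 days (0 = none, 100 = total).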

corn (Zea mays) [2] = experiment: Test G Pre-Emergence Protocol; details: Zea mays, pre-emergence, 312 h, evaluated after 13 days; for plant injury at 15.625 g/ha: 15.625 g ai/ha; for plant injury at 15.625 g/ha / plant injury at 250 g/ha: read-out: Corn damage rating (100=total damage to plant; 0=no damage to plant); for plant injury at 62.5 g/ha: 62.5 g ai/ha, 100=total damage to plant, 0=no damage to plant, read-out: Corn damage rating; for plant injury at 250 g/ha: 250 g ai/ha
Outline: as §1

[3] = test system: giant foxtail (Setaria faberi); experiment: Test G Pre-Emergence Protocol; details: Setaria faberi, pre-emergence, 312 h, evaluated after 13 days; for pest or weed control at 15.625 g/ha: 15.625 g ai/ha; for pest or weed control at 15.625 g/ha / pest or weed control at 250 g/ha: read-out: Foxtail, Giant damage rating (100=total damage to plant; 0=no damage to plant); for pest or weed control at 62.5 g/ha: 62.5 g ai/ha, 100=total damage to plant, 0=no damage to plant, read-out: Foxtail, Giant damage rating; for pest or weed control at 250 g/ha: 250 g ai/ha
Outline: as §1

[4] = test system: ivy-leaved morning glory (Ipomoea hederacea); experiment: Test G Pre-Emergence Protocol; details: Ipomoea, pre-emergence, 312 h, evaluated after 13 days; for pest or weed control at 15.625 g/ha: 15.625 g ai/ha; for pest or weed control at 15.625 g/ha / pest or weed control at 250 g/ha: read-out: Morningglory, Ivy-leaved damage rating (100=total damage to plant; 0=no damage to plant); for pest or weed control at 62.5 g/ha: 62.5 g ai/ha, 100=total damage to plant, 0=no damage to plant, read-out: Morningglory, Ivy-leaved damage rating; for pest or weed control at 250 g/ha: 250 g ai/ha
Outline: as §1

[5] = test system: redroot pigweed (Amaranthus retroflexus); experiment: Test G Pre-Emergence Protocol; details: Amaranthus retroflexus, pre-emergence, 312 h, evaluated after 13 days; for pest or weed control at 15.625 g/ha: 15.625 g ai/ha; for pest or weed control at 15.625 g/ha / pest or weed control at 250 g/ha: read-out: Pigweed, Redroot damage rating (100=total damage to plant; 0=no damage to plant); for pest or weed control at 62.5 g/ha: 62.5 g ai/ha, 100=total damage to plant, 0=no damage to plant, read-out: Pigweed, Redroot damage rating; for pest or weed control at 250 g/ha: 250 g ai/ha
Outline: as §1

[6] = test system: velvetleaf (Abutilon theophrasti); experiment: Test G Pre-Emergence Protocol; details: Abutilon theophrasti, pre-emergence, 312 h, evaluated after 13 days; for pest or weed control at 15.625 g/ha: 15.625 g ai/ha; for pest or weed control at 15.625 g/ha / pest or weed control at 250 g/ha: read-out: Velvetleaf damage rating (100=total damage to plant; 0=no damage to plant); for pest or weed control at 62.5 g/ha: 62.5 g ai/ha, 100=total damage to plant, 0=no damage to plant, read-out: Velvetleaf damage rating; for pest or weed control at 250 g/ha: 250 g ai/ha
Outline: as §1

[7] = test system: barnyardgrass (Echinochloa crus-galli); experiment: Test G Post-Emergence Protocol; details: Echinochloa crus-galli, post-emergence, 312 h, read-out: Barnyardgrass damage rating; for pest or weed control at 15.625 g/ha: 15.625 g ai/ha, evaluated after 13 days (100=total damage to plant; 0=no damage to plant); for pest or weed control at 62.5 g/ha: 62.5 g ai/ha; for pest or weed control at 62.5 g/ha / pest or weed control at 250 g/ha: evaluated after 13 days, 100=total damage to plant, 0=no damage to plant; for pest or weed control at 250 g/ha: 250 g ai/ha
Outline: (§2)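 Pot-grown seedlings, 8 days old, raised in a glasshouse at 24/16 °C day/night with 14 h light and 65% humidity, were sprayed post-emergence with test compound in acetone/water (50:50) plus 0.5% Tween 20 at 15.625, 62.5 or 250 g/ha. Damage was scored visually 13 days later on a 0–100 scale (100 = total damage).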

corn (Zea mays) [8] = experiment: Test G Post-Emergence Protocol; details: Zea mays, post-emergence, 312 h, read-out: Corn damage rating; for plant injury at 15.625 g/ha: 15.625 g ai/ha, evaluated after 13 days (100=total damage to plant; 0=no damage to plant); for plant injury at 62.5 g/ha: 62.5 g ai/ha; for plant injury at 62.5 g/ha / plant injury at 250 g/ha: evaluated after 13 days, 100=total damage to plant, 0=no damage to plant; for plant injury at 250 g/ha: 250 g ai/ha
Outline: as §2

[9] = test system: giant foxtail (Setaria faberi); experiment: Test G Post-Emergence Protocol; details: Setaria faberi, post-emergence, 312 h, read-out: Foxtail, Giant damage rating; for pest or weed control at 15.625 g/ha: 15.625 g ai/ha, evaluated after 13 days (100=total damage to plant; 0=no damage to plant); for pest or weed control at 62.5 g/ha: 62.5 g ai/ha; for pest or weed control at 62.5 g/ha / pest or weed control at 250 g/ha: evaluated after 13 days, 100=total damage to plant, 0=no damage to plant; for pest or weed control at 250 g/ha: 250 g ai/ha
Outline: as §2

[10] = test system: ivy-leaved morning glory (Ipomoea hederacea); experiment: Test G Post-Emergence Protocol; details: Ipomoea, post-emergence, 312 h, read-out: Morningglory, Ivy-leaved damage rating; for pest or weed control at 15.625 g/ha: 15.625 g ai/ha, evaluated after 13 days (100=total damage to plant; 0=no damage to plant); for pest or weed control at 62.5 g/ha: 62.5 g ai/ha; for pest or weed control at 62.5 g/ha / pest or weed control at 250 g/ha: evaluated after 13 days, 100=total damage to plant, 0=no damage to plant; for pest or weed control at 250 g/ha: 250 g ai/ha
Outline: as §2

[11] = test system: redroot pigweed (Amaranthus retroflexus); experiment: Test G Post-Emergence Protocol; details: Amaranthus retroflexus, post-emergence, 312 h, read-out: Pigweed, Redroot damage rating; for pest or weed control at 15.625 g/ha: 15.625 g ai/ha, evaluated after 13 days (100=total damage to plant; 0=no damage to plant); for pest or weed control at 62.5 g/ha: 62.5 g ai/ha; for pest or weed control at 62.5 g/ha / pest or weed control at 250 g/ha: evaluated after 13 days, 100=total damage to plant, 0=no damage to plant; for pest or weed control at 250 g/ha: 250 g ai/ha
Outline: as §2

[12] = test system: velvetleaf (Abutilon theophrasti); experiment: Test G Post-Emergence Protocol; details: Abutilon theophrasti, post-emergence, 312 h, read-out: Velvetleaf damage rating; for pest or weed control at 15.625 g/ha: 15.625 g ai/ha, evaluated after 13 days (100=total damage to plant; 0=no damage to plant); for pest or weed control at 62.5 g/ha: 62.5 g ai/ha; for pest or weed control at 62.5 g/ha / pest or weed control at 250 g/ha: evaluated after 13 days, 100=total damage to plant, 0=no damage to plant; for pest or weed control at 250 g/ha: 250 g ai/ha
Outline: as §2

Compound	pest or weed control at 15.625 g/ha [1] [%]	pest or weed control at 62.5 g/ha [1] [%]	pest or weed control at 250 g/ha [1] [%]	plant injury at 15.625 g/ha (corn (Zea mays) [2]) [%]	plant injury at 62.5 g/ha (corn (Zea mays) [2]) [%]	plant injury at 250 g/ha (corn (Zea mays) [2]) [%]	pest or weed control at 15.625 g/ha [3] [%]	pest or weed control at 62.5 g/ha [3] [%]	pest or weed control at 250 g/ha [3] [%]	pest or weed control at 15.625 g/ha [4] [%]	pest or weed control at 62.5 g/ha [4] [%]	pest or weed control at 250 g/ha [4] [%]	pest or weed control at 15.625 g/ha [5] [%]	pest or weed control at 62.5 g/ha [5] [%]	pest or weed control at 250 g/ha [5] [%]	pest or weed control at 15.625 g/ha [6] [%]	pest or weed control at 62.5 g/ha [6] [%]	pest or weed control at 250 g/ha [6] [%]	pest or weed control at 15.625 g/ha [7] [%]	pest or weed control at 62.5 g/ha [7] [%]	further results
COc1cc(C2CN(C)C(=O)C2C(=O)Nc2cccc(F)c2F)cc(C(F)(F)F)c1F (centres unmarked) [Compound 1701]	0	30	70	0	0	30	40	80	90	0	20	20	0	0	10	0	0	0	10	60	pest or weed control at 250 g/ha [7]: 70%; plant injury at 15.625 g/ha (corn (Zea mays) [8]): 10%; plant injury at 62.5 g/ha (corn (Zea mays) [8]): 30%; plant injury at 250 g/ha (corn (Zea mays) [8]): 50%; pest or weed control at 15.625 g/ha [9]: 40%; pest or weed control at 62.5 g/ha [9]: 60%; pest or weed control at 250 g/ha [9]: 60%; pest or weed control at 15.625 g/ha [10]: 0%; pest or weed control at 62.5 g/ha [10]: 0%; pest or weed control at 250 g/ha [10]: 30%; pest or weed control at 15.625 g/ha [11]: 0%; pest or weed control at 62.5 g/ha [11]: 0%; pest or weed control at 250 g/ha [11]: 30%; pest or weed control at 15.625 g/ha [12]: 0%; pest or weed control at 62.5 g/ha [12]: 0%; pest or weed control at 250 g/ha [12]: 0%
CN1CC(c2cc(C#N)cc(C(F)(F)F)c2)C(C(=O)Nc2cccc(F)c2F)C1=O (centres unmarked) [Compound 1684]	0	0	0	0	0	10	0	0	0	0	0	0	0	0	10	0	0	0	0	0	pest or weed control at 250 g/ha [7]: 0%; plant injury at 15.625 g/ha (corn (Zea mays) [8]): 0%; plant injury at 62.5 g/ha (corn (Zea mays) [8]): 0%; plant injury at 250 g/ha (corn (Zea mays) [8]): 0%; pest or weed control at 15.625 g/ha [9]: 0%; pest or weed control at 62.5 g/ha [9]: 0%; pest or weed control at 15.625 g/ha [10]: 0%; pest or weed control at 62.5 g/ha [10]: 0%; pest or weed control at 250 g/ha [10]: 0%; pest or weed control at 15.625 g/ha [11]: 0%; pest or weed control at 62.5 g/ha [11]: 0%; pest or weed control at 250 g/ha [11]: 0%; pest or weed control at 15.625 g/ha [12]: 0%; pest or weed control at 62.5 g/ha [12]: 0%; pest or weed control at 250 g/ha [12]: 0%
COc1cc(C)cc([C@@H]2CN(C)C(=O)[C@H]2C(=O)Nc2cccc(F)c2C)c1 (racemic) [Compound 1791]	70	80	90	20	70	80	80	90	90	10	20	80	0	0	10	0	10	40	70	80	pest or weed control at 250 g/ha [7]: 80%; plant injury at 15.625 g/ha (corn (Zea mays) [8]): 30%; plant injury at 62.5 g/ha (corn (Zea mays) [8]): 70%; plant injury at 250 g/ha (corn (Zea mays) [8]): 80%; pest or weed control at 15.625 g/ha [9]: 80%; pest or weed control at 62.5 g/ha [9]: 80%; pest or weed control at 250 g/ha [9]: 80%; pest or weed control at 15.625 g/ha [10]: 20%; pest or weed control at 62.5 g/ha [10]: 70%; pest or weed control at 250 g/ha [10]: 70%; pest or weed control at 15.625 g/ha [11]: 0%; pest or weed control at 62.5 g/ha [11]: 0%; pest or weed control at 250 g/ha [11]: 0%; pest or weed control at 15.625 g/ha [12]: 10%; pest or weed control at 62.5 g/ha [12]: 30%; pest or weed control at 250 g/ha [12]: 20%
